Source: PubChem BioAssay AID330 (DTP/NCI, 2004)
Where “and” joins values, the source holds several entries; their conditions need not be identical. Equal values may be shown once. Toxic doses and inconclusive results are not listed.

System: P388 leukemia ip, CD2F1 mice, survival T/C
Experiment: NCI In Vivo Anticancer Drug Screen. Data for tumor model P388 Leukemia (intraperitoneal) in CD2F1 (CDF1) mice
Conditions: endpoint: median survival time, higher = longer survival
How it was run: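 Mice carrying the transplanted tumor received test compound or vehicle. Survival was recorded in each group, and the value is the treated-group measurement divided by that of the vehicle-treated control group.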

[1] = dose: 60.0 mg/kg/injection, schedule: Q01DX005 (ip), vehicle: saline with Tween-80
[2] = dose: 120.0 mg/kg/injection, schedule: Q01DX005 (ip), vehicle: saline with Tween-80
[3] = dose: 240.0 mg/kg/injection, schedule: Q01DX005 (ip), vehicle: saline with Tween-80
[4] = dose: 50.0 mg/kg/injection, schedule: Q01DX009 (ip), vehicle: saline
[5] = dose: 100.0 mg/kg/injection, schedule: Q01DX009 (ip), vehicle: saline
[6] = dose: 50.0 mg/kg/injection, schedule: Q01DX005 (ip), vehicle: saline
[7] = dose: 100.0 mg/kg/injection, schedule: Q01DX005 (ip), vehicle: saline
[8] = dose: 200.0 mg/kg/injection, schedule: Q01DX005 (ip), vehicle: saline
[9] = dose: 25.0 mg/kg/injection, schedule: Q01DX009 (ip), vehicle: saline with Tween-80
[10] = dose: 50.0 mg/kg/injection, schedule: Q01DX009 (ip), vehicle: saline with Tween-80
[11] = dose: 50.0 mg/kg/injection, schedule: Q01DX005 (ip), vehicle: saline with Tween-80
[12] = dose: 100.0 mg/kg/injection, schedule: Q01DX005 (ip), vehicle: saline with Tween-80
[13] = dose: 200.0 mg/kg/injection, schedule: Q01DX005 (ip), vehicle: saline with Tween-80
[14] = dose: 6.25 mg/kg/injection, schedule: Q01DX009 (ip), vehicle: saline with Tween-80
[15] = dose: 12.5 mg/kg/injection, schedule: Q04DX003 (ip), vehicle: saline with Tween-80
[16] = dose: 25.0 mg/kg/injection, schedule: Q04DX003 (ip), vehicle: saline with Tween-80
[17] = dose: 50.0 mg/kg/injection, schedule: Q04DX003 (ip), vehicle: saline with Tween-80

Compound: [Cl][Ni][Cl]
- T/C (dose: 0.78 mg/kg/injection, schedule: Q01DX009 (ip), vehicle: saline): 100 % of control
- T/C (dose: 1.56 mg/kg/injection, schedule: Q01DX009 (ip), vehicle: saline): 103 % of control
- T/C (dose: 3.13 mg/kg/injection, schedule: Q01DX009 (ip), vehicle: saline): 100 % of control
- T/C (dose: 6.25 mg/kg/injection, schedule: Q01DX009 (ip), vehicle: saline): 99 % of control
- T/C (dose: 12.5 mg/kg/injection, schedule: Q01DX009 (ip), vehicle: saline): 99 % of control and 101 % of control

Compound: NC(=O)NC(c1ccc(O)cc1)c1cc2c(cc1O)OCO2 (stereo unspecified)
- T/C (dose: 60.0 mg/kg/injection, schedule: Q01DX005 (ip), vehicle: Klucel + Tween-80): 86 % of control
- T/C (dose: 120.0 mg/kg/injection, schedule: Q01DX005 (ip), vehicle: Klucel + Tween-80): 86 % of control
- T/C (dose: 240.0 mg/kg/injection, schedule: Q01DX005 (ip), vehicle: Klucel + Tween-80): 86 % of control

Compound: O=[N+]([O-])c1cc(I)c(O)c(/C=N/NS(=O)(=O)c2ccc(F)cc2)c1
- T/C [1]: 104 % of control
- T/C [2]: 105 % of control
- T/C [3]: 101 % of control

Compound: COC1=C(N)C(=O)c2nc(-c3ccccc3N)ccc2C1=O
- T/C [4]: 121 % of control
- T/C [5]: 120 % of control

Compound: C=CN=NNc1ccc(Cl)cc1
- T/C (dose: 100.0 mg/kg/injection, schedule: Q04DX003 (ip), vehicle: saline + Tween-80 + alcohol): 109 % of control
- T/C (dose: 200.0 mg/kg/injection, schedule: Q04DX003 (ip), vehicle: saline + Tween-80 + alcohol): 108 % of control
- T/C (dose: 400.0 mg/kg/injection, schedule: Q04DX003 (ip), vehicle: saline + Tween-80 + alcohol): 117 % of control

Compound: CN(C)C[C@@H]1OCCOCCO[C@@H](CN(C)C)[C@H](CN(C)C)OCCOCCO[C@H]1CN(C)C
- T/C [6]: 98 % of control
- T/C [7]: 88 % of control
- T/C [8]: 90 % of control

Compound: CCCCCCC(/C=C/c1ccc(Cl)c(Cl)c1)=N\Nc1ccc(Cl)c(Cl)c1
- T/C [9]: 90 % of control
- T/C [10]: 88 % of control and 93 % of control
- T/C (dose: 100.0 mg/kg/injection, schedule: Q01DX009 (ip), vehicle: saline with Tween-80): 94 % of control
- T/C (dose: 200.0 mg/kg/injection, schedule: Q01DX009 (ip), vehicle: saline with Tween-80): 87 % of control

Compound: Nc1nc(N)c2cnnn2n1
- T/C [11]: 95 % of control
- T/C [12]: 102 % of control
- T/C [13]: 110 % of control

Compound: OCC1=C(CO)CC2=C(CC=CC2)C1
- T/C (dose: 50.0 mg/kg/injection, schedule: Q01DX005 (ip), vehicle: Klucel (hydroxypropylcellulose) (HPC)): 100 % of control
- T/C (dose: 100.0 mg/kg/injection, schedule: Q01DX005 (ip), vehicle: Klucel (hydroxypropylcellulose) (HPC)): 99 % of control
- T/C (dose: 200.0 mg/kg/injection, schedule: Q01DX005 (ip), vehicle: Klucel (hydroxypropylcellulose) (HPC)): 97 % of control

Compound: COC1=C(OC)C(=O)C(SC/C=C(\C)CCCC(C)CCCC(C)CCCC(C)C)=CC1=O (stereo unspecified)
- T/C [14]: 105 % of control and 106 % of control and 113 % of control

Compound: C[C@H]1CC(=O)SC1=O
- T/C (dose: 25.0 mg/kg/injection, schedule: Q04DX002 (ip), vehicle: saline): 100 % of control
- T/C (dose: 50.0 mg/kg/injection, schedule: Q04DX002 (ip), vehicle: saline): 93 % of control

Compound: CCCC(=O)NC1CCc2cc(OC)c(OC)c(OC)c2-c2ccc(OC)c(=O)cc21 (stereo unspecified)
- T/C (dose: 0.62 mg/kg/injection, schedule: Q01DX009 (ip), vehicle: Klucel (hydroxypropylcellulose) (HPC)): 152 % of control
- T/C (dose: 0.63 mg/kg/injection, schedule: Q01DX009 (ip), vehicle: Klucel (hydroxypropylcellulose) (HPC)): 178 % of control
- T/C (dose: 1.25 mg/kg/injection, schedule: Q01DX009 (ip), vehicle: Klucel (hydroxypropylcellulose) (HPC)): 152 % of control and 233 % of control
- T/C (dose: 2.5 mg/kg/injection, schedule: Q01DX009 (ip), vehicle: Klucel (hydroxypropylcellulose) (HPC)): 221 % of control

Compound: O=C1c2cccc(O)c2C(=O)c2c(OC3OC(CO)C(OC4OC(CO)C(O)C(O)C4O)C(O)C3O)cccc21 (stereo unspecified)
- T/C [15]: 100 % of control
- T/C [16]: 100 % of control
- T/C [4]: 104 % of control
- T/C [17]: 99 % of control
- T/C [5]: 107 % of control
- T/C (dose: 200.0 mg/kg/injection, schedule: Q01DX009 (ip), vehicle: saline): 102 % of control

Compound: CC(CC(N)=O)Cc1ccccc1 (stereo unspecified)
- T/C (dose: 100.0 mg/kg/injection, schedule: Q01DX001 (ip), vehicle: saline with Tween-80): 104 % of control
- T/C (dose: 200.0 mg/kg/injection, schedule: Q01DX001 (ip), vehicle: saline with Tween-80): 103 % of control
- T/C (dose: 400.0 mg/kg/injection, schedule: Q01DX001 (ip), vehicle: saline with Tween-80): 104 % of control

Compound: Cc1cc(C)nc(NS(=O)(=O)c2ccc(NC(=O)c3cccnc3Nc3cccc(Cl)c3)cc2)n1
- T/C [1]: 105 % of control
- T/C [2]: 115 % of control
- T/C [3]: 112 % of control

Compound: C[C@@]12C[C@@H](Br)[C@H](Br)C[C@]1(C)O2
- T/C [11]: 104 % of control
- T/C [12]: 106 % of control
- T/C [13]: 101 % of control

Compound: NC(CCP(=O)(O)O)C(=O)O (stereo unspecified)
- T/C [6]: 107 % of control
- T/C [7]: 97 % of control
- T/C (dose: 100.0 mg/kg/injection, schedule: Q04DX002 (ip), vehicle: saline with Tween-80): 100 % of control
- T/C [8]: 92 % of control
- T/C (dose: 200.0 mg/kg/injection, schedule: Q04DX002 (ip), vehicle: saline with Tween-80): 87 % of control
- T/C (dose: 400.0 mg/kg/injection, schedule: Q04DX002 (ip), vehicle: saline with Tween-80): 89 % of control

Compound: COc1ccc(C[n+]2cc([O-])on2)cc1
- T/C [14]: 100 % of control
- T/C (dose: 12.5 mg/kg/injection, schedule: Q01DX009 (ip), vehicle: saline with Tween-80): 100 % of control
- T/C [9]: 100 % of control and 104 % of control and 95 % of control
- T/C [10]: 122 % of control
- T/C (dose: 66.0 mg/kg/injection, schedule: Q01DX009 (ip), vehicle: saline with Tween-80): 118 % of control and 122 % of control

Compound: Nc1ccc(Nc2ccncc2)cc1
- T/C (dose: 6.25 mg/kg/injection, schedule: Q01DX009 (ip), vehicle: Klucel (hydroxypropylcellulose) (HPC)): 100 % of control
- T/C (dose: 12.5 mg/kg/injection, schedule: Q01DX009 (ip), vehicle: Klucel (hydroxypropylcellulose) (HPC)): 95 % of control
- T/C (dose: 25.0 mg/kg/injection, schedule: Q01DX009 (ip), vehicle: Klucel (hydroxypropylcellulose) (HPC)): 100 % of control

Compound: Nc1ccccc1C(=O)CCc1ccccc1C(=O)O
- T/C [11]: 96 % of control
- T/C [12]: 99 % of control
- T/C [13]: 96 % of control

Compound: CCOC(=O)c1cnc[nH]c1=O
- T/C [16]: 99 % of control
- T/C [17]: 100 % of control
- T/C (dose: 100.0 mg/kg/injection, schedule: Q04DX003 (ip), vehicle: saline with Tween-80): 97 % of control
- T/C (dose: 200.0 mg/kg/injection, schedule: Q04DX003 (ip), vehicle: saline with Tween-80): 97 % of control

Compound: O=S(=O)(F)c1ccc(N=C=S)cc1
- T/C (dose: 6.25 mg/kg/injection, schedule: Q04DX003 (ip), vehicle: saline with Tween-80): 100 % of control
- T/C [15]: 104 % of control
- T/C [16]: 109 % of control

Compound: c1ccc2c(OCC3CO3)c3ccccc3nc2c1 (stereo unspecified)
- T/C [11]: 118 % of control
- T/C [12]: 108 % of control
- T/C [13]: 102 % of control

Compound: N#CN=[N+]([O-])c1ccc([N+](=O)[O-])cc1
- T/C (dose: 1.56 mg/kg/injection, schedule: Q01DX001 (ip), vehicle: Klucel (hydroxypropylcellulose) (HPC)): 101 % of control
- T/C (dose: 3.12 mg/kg/injection, schedule: Q01DX001 (ip), vehicle: Klucel (hydroxypropylcellulose) (HPC)): 99 % of control
- T/C (dose: 6.25 mg/kg/injection, schedule: Q01DX001 (ip), vehicle: Klucel (hydroxypropylcellulose) (HPC)): 110 % of control
- T/C (dose: 6.25 mg/kg/injection, schedule: Q04DX003 (ip), vehicle: Klucel (hydroxypropylcellulose) (HPC)): 101 % of control

Compound: COc1cc(OC2OC(CO)C(O)C(O)C2O)c2c(O)c3c(=O)cc(C)oc3cc2c1 (stereo unspecified)
- T/C (dose: 3.75 mg/kg/injection, schedule: Q01DX009 (ip), vehicle: Klucel (hydroxypropylcellulose) (HPC)): 100 % of control
- T/C (dose: 7.5 mg/kg/injection, schedule: Q01DX009 (ip), vehicle: Klucel (hydroxypropylcellulose) (HPC)): 100 % of control
- T/C (dose: 15.0 mg/kg/injection, schedule: Q01DX009 (ip), vehicle: Klucel (hydroxypropylcellulose) (HPC)): 94 % of control
- T/C (dose: 30.0 mg/kg/injection, schedule: Q01DX009 (ip), vehicle: Klucel (hydroxypropylcellulose) (HPC)): 101 % of control
